Reference: PubChem BioAssay AID248 (DTP/NCI, 2004)
Values joined by “and” are separate entries in the source; they are usually repeats but may differ in a detail not shown here. Equal entries are not always repeated. Inconclusive results and toxic doses are left out. No stated cut-off is given here; in the data, active means T/C of 150% or more; inactive means T/C below 125%. Peptide text beside a SMILES is read from it. * marks the point of attachment. Trt = c1ccc(C(c2ccccc2)(c2ccccc2)*)cc1; Boc = CC(C)(C)OC(=O)*

Test system: L1210 leukemia ip in BDF1 mice, survival T/C
Assay: NCI In Vivo Anticancer Drug Screen. Data for tumor model L1210 Leukemia (intraperitoneal) in B6D2F1 (BDF1) mice
Conditions: endpoint: mean survival time, higher = longer survival
In short: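 Mice bearing the transplanted tumor received compound or vehicle. Survival of the treated group was divided by that of the vehicle-treated control group to give the ratio.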

[1] = dose: 100.0 mg/kg/injection, schedule: Q04DX002 (ip), vehicle: saline with Tween-80
[2] = dose: 200.0 mg/kg/injection, schedule: Q04DX002 (ip), vehicle: saline with Tween-80
[3] = dose: 400.0 mg/kg/injection, schedule: Q04DX002 (ip), vehicle: saline with Tween-80
[4] = dose: 100.0 mg/kg/injection, schedule: Q01DX001 (ip), vehicle: saline
[5] = dose: 50.0 mg/kg/injection, schedule: Q01DX009 (ip), vehicle: saline with Tween-80
[6] = dose: 100.0 mg/kg/injection, schedule: Q04DX002 (ip), vehicle: Klucel (hydroxypropylcellulose) (HPC)
[7] = dose: 200.0 mg/kg/injection, schedule: Q04DX002 (ip), vehicle: Klucel (hydroxypropylcellulose) (HPC)
[8] = dose: 100.0 mg/kg/injection, schedule: Q01DX001 (ip), vehicle: carboxymethylcellulose (CMC)
[9] = dose: 200.0 mg/kg/injection, schedule: Q01DX001 (ip), vehicle: carboxymethylcellulose (CMC)
[10] = dose: 400.0 mg/kg/injection, schedule: Q01DX001 (ip), vehicle: carboxymethylcellulose (CMC)
[11] = dose: 50.0 mg/kg/injection, schedule: Q01DX001 (ip), vehicle: carboxymethylcellulose (CMC)
[12] = dose: 100.0 mg/kg/injection, schedule: Q04DX003 (ip), vehicle: saline with Tween-80
[13] = dose: 200.0 mg/kg/injection, schedule: Q04DX003 (ip), vehicle: saline with Tween-80
[14] = dose: 400.0 mg/kg/injection, schedule: Q04DX003 (ip), vehicle: saline with Tween-80
[15] = dose: 100.0 mg/kg/injection, schedule: Q01DX009 (ip), vehicle: saline with Tween-80
[16] = dose: 200.0 mg/kg/injection, schedule: Q01DX009 (ip), vehicle: saline with Tween-80
[17] = dose: 100.0 mg/kg/injection, schedule: Q04DX003 (ip), vehicle: Klucel (hydroxypropylcellulose) (HPC)
[18] = dose: 200.0 mg/kg/injection, schedule: Q04DX003 (ip), vehicle: Klucel (hydroxypropylcellulose) (HPC)
[19] = dose: 400.0 mg/kg/injection, schedule: Q04DX003 (ip), vehicle: Klucel (hydroxypropylcellulose) (HPC)
[20] = dose: 400.0 mg/kg/injection, schedule: Q01DX009 (ip), vehicle: saline with Tween-80

Measured: T/C

CC(O)c1cccc(Br)c1 (stereo unspecified)
inactive: [1] 100 % of control | [2] 90 % of control | [3] 90 % of control

CC(=O)/C(=C\c1ccc(N(C)C)cc1)C(C)=[N+](C)C(=O)c1c(/[N+](C)=C(C)\C(=C\c2ccc(N(C)C)cc2)C(C)=O)ncn1C
inactive: dose: 50.0 mg/kg/injection, schedule: Q01DX001 (ip), vehicle: saline 103 % of control | [4] 103 % of control and 90 % of control | dose: 200.0 mg/kg/injection, schedule: Q01DX001 (ip), vehicle: saline 97 % of control and 118 % of control

Cn1nc(N)c2ncc(C(Cl)(Cl)Cl)nc21
inactive: dose: 25.0 mg/kg/injection, schedule: Q01DX009 (ip), vehicle: saline with Tween-80 108 % of control | [5] 111 % of control

Nc1nc(SCc2ccccc2Cl)cc(C(=O)O)n1
inactive: dose: 50.0 mg/kg/injection, schedule: Q01DX Z (ip), vehicle: methylcellulose (MC) 102 % of control

CCCCCCCCSC(=S)S.[Fe]
inactive: [6] 88 % of control | [7] 95 % of control | dose: 400.0 mg/kg/injection, schedule: Q04DX002 (ip), vehicle: Klucel (hydroxypropylcellulose) (HPC) 91 % of control

CN1CCC(OC(=O)N(c2ccccc2)c2ccccc2)CC1
inactive: dose: 100.0 mg/kg/injection, schedule: Q01DX001 (ip), vehicle: saline with Tween-80 99 % of control | dose: 200.0 mg/kg/injection, schedule: Q01DX001 (ip), vehicle: saline with Tween-80 105 % of control

O=C(Nc1ccc(NC(=O)/C(Cl)=C/Cl)c2c1C(=O)c1ccccc1C2=O)/C(Cl)=C/Cl
inactive: [8] 92 % of control | [9] 92 % of control | [10] 100 % of control

CC1(C)N=C(c2ccccc2)C2C(c3ccc([N+](=O)[O-])cc3)N21 (stereo unspecified)
inactive: [11] 98 % of control | [8] 88 % of control | [9] 93 % of control | [10] 91 % of control

CCN(CC)c1cc2c(cc1Br)-c1ccccc1C2=O
inactive: [12] 101 % of control | [13] 104 % of control | [14] 106 % of control

Cc1ccc(C(=O)n2c(Cl)c(C=O)c3ccccc32)cc1
inactive: dose: 50.0 mg/kg/injection, schedule: Q04DX002 (ip), vehicle: Klucel (hydroxypropylcellulose) (HPC) 94 % of control | [6] 97 % of control | [7] 94 % of control

O=C1C2C3C=CC(C3)C2C(=O)C2C3C=CC(C3)C12 (stereo unspecified)
inactive: [11] 103 % of control | [8] 93 % of control | [9] 100 % of control | [10] 112 % of control

CC(C)(C)C(=O)CC(=O)C(C)(C)C.CC(C)(C)C(=O)CC(=O)C(C)(C)C.CC(C)(C)C(=O)CC(=O)C(C)(C)C.[Er]
inactive: [12] 100 % of control | [13] 97 % of control | [14] 94 % of control

S=C(NC1CC2C=CC1C2)N1CCCCC1 (stereo unspecified)
inactive: [5] 106 % of control | [15] 100 % of control | [16] 95 % of control

CC1CNC(=O)C(=O)N1 (stereo unspecified)
inactive: dose: 100.0 mg/kg/injection, schedule: Q04DX002 (ip), vehicle: saline 98 % of control | dose: 200.0 mg/kg/injection, schedule: Q04DX002 (ip), vehicle: saline 102 % of control | dose: 400.0 mg/kg/injection, schedule: Q04DX002 (ip), vehicle: saline 94 % of control

Cn1[nH]c(=O)c2ccccc2c1=O
inactive: dose: 8.2 mg/kg/injection, schedule: Q04DX003 (ip), vehicle: Klucel (hydroxypropylcellulose) (HPC) 104 % of control | dose: 12.5 mg/kg/injection, schedule: Q04DX003 (ip), vehicle: Klucel (hydroxypropylcellulose) (HPC) 109 % of control and 120 % of control | dose: 18.0 mg/kg/injection, schedule: Q04DX003 (ip), vehicle: Klucel (hydroxypropylcellulose) (HPC) 108 % of control | dose: 25.0 mg/kg/injection, schedule: Q04DX003 (ip), vehicle: Klucel (hydroxypropylcellulose) (HPC) 97 % of control | dose: 50.0 mg/kg/injection, schedule: Q04DX003 (ip), vehicle: Klucel (hydroxypropylcellulose) (HPC) 110 % of control | [17] 106 % of control | [18] 106 % of control | [19] 103 % of control

CC(O)c1cc(Cl)ccc1Cl (stereo unspecified)
inactive: [15] 87 % of control | [12] 101 % of control and 107 % of control | [16] 103 % of control | [13] 107 % of control | [20] 92 % of control | [14] 98 % of control and 92 % of control

O/N=C\c1cc2c3c(c1)CCCN3CCC2
inactive: dose: 100.0 mg/kg/injection, schedule: Q01DX009 (ip), vehicle: Klucel (hydroxypropylcellulose) (HPC) 95 % of control | dose: 200.0 mg/kg/injection, schedule: Q01DX009 (ip), vehicle: Klucel (hydroxypropylcellulose) (HPC) 91 % of control | dose: 400.0 mg/kg/injection, schedule: Q01DX009 (ip), vehicle: Klucel (hydroxypropylcellulose) (HPC) 86 % of control

CC(C)(C)OC(=O)NCCCCC(NC(=O)CNC(=O)C(CSC(c1ccccc1)(c1ccccc1)c1ccccc1)NC(=O)OC(C)(C)C)C(=O)O (stereo unspecified) (Boc-Cys(Trt)-Gly-Lys(Boc)-OH; configuration not given here)
inactive: dose: 25.0 mg/kg/injection, schedule: Q04DX003 (ip), vehicle: saline with Tween-80 96 % of control | dose: 50.0 mg/kg/injection, schedule: Q04DX003 (ip), vehicle: saline with Tween-80 98 % of control | [12] 94 % of control

CCN(CC)CCCNC(c1ccccc1)C(Cl)(Cl)Cl (stereo unspecified)
inactive: [4] 96 % of control

CC(CO)(CO)N=Cc1cccc([N+](=O)[O-])c1
inactive: [11] 103 % of control | [8] 103 % of control | [9] 103 % of control | [10] 97 % of control

Cc1cc(N(C)C)nc(SCc2ccc(F)cc2)n1
inactive: dose: 200.0 mg/kg/injection, schedule: Q01DX Z (ip), vehicle: methylcellulose (MC) 96 % of control

C=CCN=C(N)C(N)=NCC=C
inactive: dose: 100.0 mg/kg/injection, schedule: Q04DX003 (ip), vehicle: saline 96 % of control | dose: 200.0 mg/kg/injection, schedule: Q04DX003 (ip), vehicle: saline 101 % of control | dose: 400.0 mg/kg/injection, schedule: Q04DX003 (ip), vehicle: saline 103 % of control

O=S1ON=C(c2ccccc2)N1c1ccccc1Cl (stereo unspecified)
inactive: [17] 93 % of control | [18] 93 % of control | [19] 88 % of control

COc1ccc(/C=C2/COC/C(=C\c3ccc(OC)cc3)C2=O)cc1
inactive: dose: 100.0 mg/kg/injection, schedule: Q01DX009 (ip), vehicle: saline 91 % of control | dose: 200.0 mg/kg/injection, schedule: Q01DX009 (ip), vehicle: saline 91 % of control | dose: 400.0 mg/kg/injection, schedule: Q01DX009 (ip), vehicle: saline 91 % of control

Nc1ccccc1SC1CC(=O)N(c2ccc3c(c2)OCO3)C1=O (stereo unspecified)
inactive: [1] 93 % of control | [2] 101 % of control | [3] 86 % of control

CC(C)(C)c1cc(CN2CCOCC2)cc(C(C)(C)C)c1O
inactive: [15] 96 % of control | [16] 104 % of control | [20] 96 % of control
